Source: ChEMBL document CHEMBL1124295, “Synthesis and oral antiallergic activity of carboxylic acids derived from imidazo[2,1-c][1,4]benzoxazines, imidazo[1,2-a]quinolines, imidazo[1,2-a]quinoxalines, imidazo[1,2-a]quinoxalinones, pyrrolo[1,2-a]quinoxalinones, pyrrolo[2,3-a]quinoxalinones, and imidazo[2,1-b]benzothiazoles” (1988)
The source made the active and inactive calls. The rule behind the calls is not given here.

Assays:
[1] = system: Rattus norvegicus; test: Inhibition of the IgE-mediated passive cutaneous anaphylaxis (PCA) reaction in rat after intravenous administration; NA means inactive at 1 and 10 mg/Kg; format: functional, organism-based
[2] = system: Rattus norvegicus; test: Inhibition of the IgE-mediated passive cutaneous anaphylaxis (PCA) reaction in rat after oral administration; NA means inactive at 1 and 10 mg/Kg; format: functional, organism-based
[3] = system: Rattus norvegicus; test: Inhibition of the IgE-mediated passive cutaneous anaphylaxis (PCA) reaction in rat after oral administration; Inactive(50% inhibition at 10 mg/kg); format: functional
[4] = system: Rattus norvegicus; test: Inhibition of the IgE-mediated passive cutaneous anaphylaxis (PCA) reaction in rat after intravenous administration; Range 0.19-0.59; format: functional
[5] = system: Rattus norvegicus; test: Inhibition of the IgE-mediated passive cutaneous anaphylaxis (PCA) reaction in rat after oral administration; Inactive at 1 and 10 mg/kg; format: functional, organism-based; set-up: dose 10 mg/kg
[6] = system: Rattus norvegicus; test: Inhibition of the IgE-mediated passive cutaneous anaphylaxis (PCA) reaction in rat after intravenous administration; Inactive at 1 and 10 mg/kg; format: functional, organism-based; set-up: dose 10 mg/kg
[7] = system: Rattus norvegicus; test: Inhibition of the IgE-mediated passive cutaneous anaphylaxis (PCA) reaction in rat after intravenous administration; Range 0.22-0.38; format: functional
[8] = system: Rattus norvegicus; test: Inhibition of the IgE-mediated passive cutaneous anaphylaxis (PCA) reaction in rat after oral administration; Range 0.4-2.34; format: functional
[9] = system: Rattus norvegicus; test: Inhibition of the IgE-mediated passive cutaneous anaphylaxis (PCA) reaction in rat after oral administration; Range 0.29-0.4; format: functional
[10] = system: Rattus norvegicus; test: Inhibition of the IgE-mediated passive cutaneous anaphylaxis (PCA) reaction in rat after intravenous administration; Range 0.24-0.39; format: functional
[11] = system: Rattus norvegicus; test: Inhibition of the IgE-mediated passive cutaneous anaphylaxis (PCA) reaction in rat after intravenous administration; Range 2.74-6.94; format: functional
[12] = system: Rattus norvegicus; test: Inhibition of the IgE-mediated passive cutaneous anaphylaxis (PCA) reaction in rat after intravenous administration; Range 0.05-0.11; format: functional
[13] = system: Rattus norvegicus; test: Inhibition of the IgE-mediated passive cutaneous anaphylaxis (PCA) reaction in rat after oral administration; Range 0.74-2.02; format: functional
[14] = system: Rattus norvegicus; test: Inhibition of the IgE-mediated passive cutaneous anaphylaxis (PCA) reaction in rat after oral administration; Range 4.65-18.7; format: functional
[15] = system: Rattus norvegicus; test: Inhibition of the IgE-mediated passive cutaneous anaphylaxis (PCA) reaction in rat after intravenous administration; Range 1.14-3.89; format: functional
[16] = system: Rattus norvegicus; test: Inhibition of the IgE-mediated passive cutaneous anaphylaxis (PCA) reaction in rat after intravenous administration; Range 0.25-0.41; format: functional
[17] = system: Rattus norvegicus; test: Inhibition of the IgE-mediated passive cutaneous anaphylaxis (PCA) reaction in rat after intravenous administration; Range 0.058-0.15; format: functional
[18] = system: Rattus norvegicus; test: Inhibition of the IgE-mediated passive cutaneous anaphylaxis (PCA) reaction in rat after intravenous administration; Range 0.24-1.05; format: functional
[19] = system: Rattus norvegicus; test: Inhibition of the IgE-mediated passive cutaneous anaphylaxis (PCA) reaction in rat after intravenous administration; Range 0.05-0.15; format: functional
[20] = system: Rattus norvegicus; test: Inhibition of the IgE-mediated passive cutaneous anaphylaxis (PCA) reaction in rat after intravenous administration; Range 0.02-0.38; format: functional
[21] = system: Rattus norvegicus; test: Inhibition of the IgE-mediated passive cutaneous anaphylaxis (PCA) reaction in rat after oral administration; Inactive at 10 mg/kg; format: functional, organism-based; set-up: dose 10 mg/kg
[22] = system: Rattus norvegicus; test: Inhibition of the IgE-mediated passive cutaneous anaphylaxis (PCA) reaction in rat after intravenous administration; Range 0.023-0.11; format: functional
[23] = system: Rattus norvegicus; test: Inhibition of the IgE-mediated passive cutaneous anaphylaxis (PCA) reaction in rat after oral administration; Range 0.07-0.4; format: functional
[24] = system: Rattus norvegicus; test: Inhibition of the IgE-mediated passive cutaneous anaphylaxis (PCA) reaction in rat after intravenous administration; Range 0.021-0.033; format: functional
[25] = system: Rattus norvegicus; test: Inhibition of the IgE-mediated passive cutaneous anaphylaxis (PCA) reaction in rat after intravenous administration; Range 0.18-0.41; format: functional
[26] = system: Rattus norvegicus; test: Inhibition of the IgE-mediated passive cutaneous anaphylaxis (PCA) reaction in rat after oral administration; Range 0.026-0.31; format: functional

O=C(O)Cc1cn2c(n1)COc1ccccc1-2
ED50 [1]: inactive

CCOC(=O)c1cn2c(cnc3cc(Cl)c(Cl)cc32)n1
ED50 [2]: inactive

COC(=O)c1nnn2c1c(=O)oc1ccccc12
inhibition in vivo at 10 mg/kg [3]: 50%

COC(=O)c1nc2n(c1C(=O)O)-c1ccccc1OC2
ED50 [1]: inactive

O=C(O)c1cn2c(n1)sc1ccccc12
ED50 [4]: 0.33 mg/kg

COc1ccc2c(OC)cc3nc(C(=O)O)cn3c2c1
ED50 [5]: inactive

CCc1nc(C(=O)O)c2c(O)nc3ccccc3n12
ED50 [6]: inactive

Cc1cc2sc3nc(C(=O)O)cn3c2cc1C
ED50 [7]: 0.3 mg/kg

O=C(O)c1nc2n(c1C(=O)N1CCOCC1)-c1ccccc1OC2
ED50 [1]: inactive

Cl.Cl.NCc1cn2c(ccc3ccccc32)n1
ED50 [8]: 0.976 mg/kg

O=C(O)c1cn2c(ccc3ccccc32)n1
ED50 [9]: 0.34 mg/kg | ED50 [10]: 0.3 mg/kg

O=C(O)c1nc2ccc3ccccc3n2c1Br
ED50 [11]: 4.19 mg/kg

CCn1c(=O)c2nc(CO)cn2c2ccccc21
ED50 [12]: 0.071 mg/kg

O=C(O)c1cnc2n1-c1ccccc1OC2
ED50 [1]: inactive

CCCn1c(=O)c2nc(C(=O)OCC)cn2c2ccccc21
ED50 [13]: 1.21 mg/kg

CCOC(=O)c1cn2c(cc(Cl)c3ccc(OC)cc32)n1
ED50 [14]: 8 mg/kg

Cc1c(C(=O)O)nc2ccc3ccc(Cl)cc3n12
ED50 [15]: 1.99 mg/kg

O=C(O)c1cc2ccc3ccccc3n2c1
ED50 [6]: inactive

CCn1c(=O)c2nc(C(=O)Nc3nn[nH]n3)cn2c2ccccc21
ED50 [16]: 0.32 mg/kg

CSc1ccc2ccc3nc(C(=O)O)cn3c2c1
ED50 [17]: 0.095 mg/kg

COc1ccc2ccc3nc(C(N)=O)cn3c2c1
ED50 [5]: inactive

O=C(Nc1nn[nH]n1)c1cn2c(cnc3ccccc32)n1
ED50 [18]: 0.45 mg/kg | ED50 [5]: inactive

O=C(O)c1cn2ccc3ccccc3c2n1
ED50 [1]: inactive

CCc1ccc2c(Cl)cc3nc(C(=O)O)cn3c2c1
ED50 [19]: 0.09 mg/kg

C[S+](=N)([O-])c1ccc2ccc3nc(C(=O)O)cn3c2c1 (stereo not drawn)
ED50 [17]: 0.095 mg/kg

OCc1cn2c(cc(Cl)c3ccc(Cl)cc32)n1
ED50 [20]: 0.16 mg/kg

O=C(O)c1cn2c(n1)c(O)nc1cc(Cl)c(Cl)cc12
ED50 [21]: inactive

CSc1cc2nc(C(=O)O)cn2c2ccccc12
ED50 [22]: 0.046 mg/kg

O=C(O)c1nc2n(c1C(=O)O)-c1ccccc1OC2
ED50 [1]: inactive

COc1ccc2c(Cl)cc3nc(C(=O)O)cn3c2c1
ED50 [23]: 0.34 mg/kg | ED50 [24]: 0.027 mg/kg

O=C(O)c1cn2c(cc(-c3ccccc3)c3cc(Cl)ccc32)n1
ED50 [5]: inactive

C[S+]([O-])c1cc2nc(C(=O)O)cn2c2ccccc12 (stereo not drawn)
ED50 [25]: 0.29 mg/kg

O=Cc1cn2c(ccc3ccccc32)n1
ED50 [26]: 0.093 mg/kg

CCOC(=O)c1cn2ccccc2n1
ED50 [6]: inactive

COc1ccc2ccc3nc(C(=O)Nc4nn[nH]n4)cn3c2c1
ED50 [6]: inactive
